In ChEMBL document CHEMBL4680201, “Design, synthesis, and pharmacological evaluation of 4- or 6-phenyl-pyrimidine derivatives as novel and selective Janus kinase 3 inhibitors” (Eur J Med Chem, 2020):
Calls of active or inactive are those of the source. The calls are words filed in the database; no cut-off is given here.

Columns and labels:
[1] = tested on: RAW264.7; experiment: Cytotoxicity against mouse RAW264.7 cells assessed as reduction in cell viability at 10 uM measured after 72 hrs by MTS assay; format: cell-based; details: raw264.7, 72 h
[2] = molecular target: ERBB2 (Receptor tyrosine-protein kinase erbB-2) (Homo sapiens, UniProt P04626); experiment: Inhibition of His-tagged human recombinant ERBB2 (676 to 1255 residues) expressed in baculovirus expression system at 100 nM using Tyr 06 as substrate preincubated for 1 hr in presence of ATP by Z'-LYTE assay relative to control; details: probe Tyr 06
ERBB2 (Receptor tyrosine-protein kinase erbB-2), sequence (P04626 whole entry, the tested form may be a part): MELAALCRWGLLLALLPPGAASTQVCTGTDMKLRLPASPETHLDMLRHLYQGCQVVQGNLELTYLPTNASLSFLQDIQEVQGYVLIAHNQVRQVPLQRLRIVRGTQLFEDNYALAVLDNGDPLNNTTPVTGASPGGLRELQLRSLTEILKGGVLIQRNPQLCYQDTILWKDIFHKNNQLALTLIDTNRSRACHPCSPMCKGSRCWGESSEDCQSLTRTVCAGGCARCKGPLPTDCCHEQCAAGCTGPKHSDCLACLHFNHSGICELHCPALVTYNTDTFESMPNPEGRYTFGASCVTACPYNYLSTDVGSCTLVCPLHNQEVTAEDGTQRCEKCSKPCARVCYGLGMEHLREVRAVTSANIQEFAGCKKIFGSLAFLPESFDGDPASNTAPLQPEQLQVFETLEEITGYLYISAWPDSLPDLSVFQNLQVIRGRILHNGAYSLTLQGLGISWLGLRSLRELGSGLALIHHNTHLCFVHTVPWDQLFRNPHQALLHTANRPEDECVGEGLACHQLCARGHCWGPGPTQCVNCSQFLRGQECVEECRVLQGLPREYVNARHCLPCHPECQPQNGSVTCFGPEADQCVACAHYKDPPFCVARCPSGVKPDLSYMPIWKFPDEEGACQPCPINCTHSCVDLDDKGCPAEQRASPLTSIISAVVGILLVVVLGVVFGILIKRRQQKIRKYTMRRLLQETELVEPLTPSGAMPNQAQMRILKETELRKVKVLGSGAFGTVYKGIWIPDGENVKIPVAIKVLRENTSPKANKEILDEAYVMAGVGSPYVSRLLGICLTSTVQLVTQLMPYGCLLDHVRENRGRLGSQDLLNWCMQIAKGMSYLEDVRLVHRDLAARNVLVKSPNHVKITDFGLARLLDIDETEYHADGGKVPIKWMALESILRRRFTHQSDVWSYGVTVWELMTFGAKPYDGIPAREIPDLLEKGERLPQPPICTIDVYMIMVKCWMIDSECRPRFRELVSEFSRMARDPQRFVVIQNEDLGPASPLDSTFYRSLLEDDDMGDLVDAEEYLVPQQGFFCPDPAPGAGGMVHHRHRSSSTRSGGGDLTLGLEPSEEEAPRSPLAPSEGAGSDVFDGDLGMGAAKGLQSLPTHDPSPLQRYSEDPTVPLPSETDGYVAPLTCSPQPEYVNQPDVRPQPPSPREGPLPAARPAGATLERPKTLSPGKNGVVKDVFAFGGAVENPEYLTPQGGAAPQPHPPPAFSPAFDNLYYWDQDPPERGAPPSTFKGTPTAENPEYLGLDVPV

[3] = molecular target: Tyrosine-protein kinase JAK1 (Homo sapiens, UniProt P23458); experiment: Inhibition of recombinant human GST-tagged JAK1 cytoplasmic domain (866 to 1154 residues) expressed in baculovirus expression system using TK-substrate-biotin preincubated for 5 mins followed by substrate addition and measured after 30 mins by HTRF assay
Tyrosine-protein kinase JAK1, sequence (P23458 whole entry, the tested form may be a part): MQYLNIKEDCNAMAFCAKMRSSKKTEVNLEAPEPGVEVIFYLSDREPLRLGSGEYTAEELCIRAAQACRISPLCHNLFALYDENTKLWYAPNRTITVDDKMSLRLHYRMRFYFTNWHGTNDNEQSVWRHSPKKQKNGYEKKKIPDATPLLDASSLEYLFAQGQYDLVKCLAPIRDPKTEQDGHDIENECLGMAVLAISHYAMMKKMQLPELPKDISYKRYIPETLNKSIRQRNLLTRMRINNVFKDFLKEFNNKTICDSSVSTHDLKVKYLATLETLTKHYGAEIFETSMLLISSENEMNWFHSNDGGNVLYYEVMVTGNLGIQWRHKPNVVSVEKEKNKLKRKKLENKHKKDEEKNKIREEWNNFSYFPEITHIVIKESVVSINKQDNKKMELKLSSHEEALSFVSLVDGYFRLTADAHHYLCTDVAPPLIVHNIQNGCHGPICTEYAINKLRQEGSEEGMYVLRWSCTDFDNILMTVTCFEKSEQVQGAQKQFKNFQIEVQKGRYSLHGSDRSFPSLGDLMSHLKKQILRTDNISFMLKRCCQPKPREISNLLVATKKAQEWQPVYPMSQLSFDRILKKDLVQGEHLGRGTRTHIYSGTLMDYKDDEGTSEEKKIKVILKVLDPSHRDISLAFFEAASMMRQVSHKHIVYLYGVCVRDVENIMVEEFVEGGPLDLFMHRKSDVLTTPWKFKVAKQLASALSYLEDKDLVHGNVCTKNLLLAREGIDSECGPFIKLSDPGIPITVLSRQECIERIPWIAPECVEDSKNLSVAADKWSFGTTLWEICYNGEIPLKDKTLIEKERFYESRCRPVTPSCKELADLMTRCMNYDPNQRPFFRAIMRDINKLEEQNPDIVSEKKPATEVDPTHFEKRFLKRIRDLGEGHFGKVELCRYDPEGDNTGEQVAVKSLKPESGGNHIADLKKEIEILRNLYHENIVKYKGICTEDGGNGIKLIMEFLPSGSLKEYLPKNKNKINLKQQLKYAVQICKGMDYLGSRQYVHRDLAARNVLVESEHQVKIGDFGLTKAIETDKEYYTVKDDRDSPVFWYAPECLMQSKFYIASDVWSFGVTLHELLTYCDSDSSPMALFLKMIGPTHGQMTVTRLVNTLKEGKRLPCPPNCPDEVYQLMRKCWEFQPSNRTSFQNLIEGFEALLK

[4] = molecular target: T1, Tyrosine-protein kinase JAK3 (Mus musculus) (UniProt Q62137); experiment: Inhibition of JAK3 in anti-CD3/-CD28 coated mouse T cells assessed as reduction in IL15-induced STAT5 phosphorylation preincubated for 1 hr followed by […] and measured after 30 mins by Western blot analysis; details: T cell
T1 sequence (whole entry): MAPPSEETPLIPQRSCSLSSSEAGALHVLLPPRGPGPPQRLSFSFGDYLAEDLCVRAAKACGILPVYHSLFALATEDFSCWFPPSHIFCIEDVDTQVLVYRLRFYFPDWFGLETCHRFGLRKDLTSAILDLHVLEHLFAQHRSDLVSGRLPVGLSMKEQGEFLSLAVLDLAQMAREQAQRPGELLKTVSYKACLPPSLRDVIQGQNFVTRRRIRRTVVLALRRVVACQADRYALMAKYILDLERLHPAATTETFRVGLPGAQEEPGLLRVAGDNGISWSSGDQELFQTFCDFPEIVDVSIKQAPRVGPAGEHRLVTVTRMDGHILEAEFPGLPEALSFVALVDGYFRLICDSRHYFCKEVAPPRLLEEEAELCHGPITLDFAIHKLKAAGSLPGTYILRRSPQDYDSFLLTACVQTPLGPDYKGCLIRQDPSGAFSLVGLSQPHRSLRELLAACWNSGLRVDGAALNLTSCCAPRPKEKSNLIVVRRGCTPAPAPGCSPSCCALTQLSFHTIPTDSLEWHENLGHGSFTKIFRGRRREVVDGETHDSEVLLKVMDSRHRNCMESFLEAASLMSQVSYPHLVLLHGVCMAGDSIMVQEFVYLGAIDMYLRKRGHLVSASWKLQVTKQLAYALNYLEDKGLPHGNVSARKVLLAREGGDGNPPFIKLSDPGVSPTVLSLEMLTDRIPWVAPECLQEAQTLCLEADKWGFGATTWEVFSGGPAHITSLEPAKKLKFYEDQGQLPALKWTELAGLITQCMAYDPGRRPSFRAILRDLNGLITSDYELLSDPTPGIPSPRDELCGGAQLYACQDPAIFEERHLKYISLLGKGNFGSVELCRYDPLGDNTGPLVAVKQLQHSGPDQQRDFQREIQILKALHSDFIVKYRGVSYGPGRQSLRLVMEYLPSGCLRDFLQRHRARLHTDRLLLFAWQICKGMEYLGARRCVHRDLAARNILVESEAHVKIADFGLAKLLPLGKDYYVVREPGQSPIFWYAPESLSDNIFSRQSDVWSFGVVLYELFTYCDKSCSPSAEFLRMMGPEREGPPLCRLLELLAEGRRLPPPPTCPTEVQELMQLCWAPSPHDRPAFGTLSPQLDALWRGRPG

[5] = molecular target: T1, Tyrosine-protein kinase JAK3 (Mus musculus); experiment: Inhibition of JAK3 in anti-CD3/-CD28 coated mouse T cells assessed as reduction in IL15-induced STAT5 phosphorylation at 10 uM preincubated for 1 hr followed by […] and measured after 30 mins by Western blot analysis; details: T cell
[6] = Cmax in ICR mouse at 10 mg/kg, iv administered as single dose by LC-MS/MS analysis; format: ADME, organism-based; parameters: route intravenous, dose 10 mg/kg; details: in vivo
[7] = Terminal half life in ICR mouse at 10 mg/kg, iv administered as single dose by LC-MS/MS analysis; format: ADME, organism-based; details: in vivo, read-out: beta t1/2 (converted)
[8] = MRT (0 to t) in ICR mouse at 10 mg/kg, iv administered as single dose by LC-MS/MS analysis; format: ADME, organism-based; details: in vivo
[9] = Plasma clearance in ICR mouse at 10 mg/kg, iv administered as single dose by LC-MS/MS analysis; format: ADME, organism-based; details: in vivo
[10] = AUC (0 to t) in ICR mouse at 10 mg/kg, iv administered as single dose by LC-MS/MS analysis; format: ADME, organism-based; parameters: dose 10 mg/kg; details: in vivo
[11] = Terminal half life in ICR mouse at 30 mg/kg, po administered as single dose via gavage by LC-MS/MS analysis; format: ADME, organism-based; details: in vivo, read-out: beta t1/2 (converted)
[12] = Cmax in ICR mouse at 30 mg/kg, po administered as single dose via gavage by LC-MS/MS analysis; format: ADME, organism-based; parameters: route oral, dose 30 mg/kg; details: in vivo
[13] = Toxicity in Balb/c mouse model of oxazolone-induced delayed type hypersensitivity assessed as change in body weight up to 30 mg/kg, po; format: organism-based; details: in vivo
[14] = molecular target: BTK (Tyrosine-protein kinase BTK) (Homo sapiens, UniProt Q06187); experiment: Inhibition of recombinant human His-tagged full length BTK expressed in baculovirus expression system at 100 nM using Tyr01 peptide as substrate incubated for 1 hr by Z'lyte assay relative to control; details: probe Tyr01 peptide
[15] = molecular target: Tyrosine-protein kinase JAK2 (Homo sapiens, UniProt O60674); format: ADME
Tyrosine-protein kinase JAK2, sequence (O60674 whole entry): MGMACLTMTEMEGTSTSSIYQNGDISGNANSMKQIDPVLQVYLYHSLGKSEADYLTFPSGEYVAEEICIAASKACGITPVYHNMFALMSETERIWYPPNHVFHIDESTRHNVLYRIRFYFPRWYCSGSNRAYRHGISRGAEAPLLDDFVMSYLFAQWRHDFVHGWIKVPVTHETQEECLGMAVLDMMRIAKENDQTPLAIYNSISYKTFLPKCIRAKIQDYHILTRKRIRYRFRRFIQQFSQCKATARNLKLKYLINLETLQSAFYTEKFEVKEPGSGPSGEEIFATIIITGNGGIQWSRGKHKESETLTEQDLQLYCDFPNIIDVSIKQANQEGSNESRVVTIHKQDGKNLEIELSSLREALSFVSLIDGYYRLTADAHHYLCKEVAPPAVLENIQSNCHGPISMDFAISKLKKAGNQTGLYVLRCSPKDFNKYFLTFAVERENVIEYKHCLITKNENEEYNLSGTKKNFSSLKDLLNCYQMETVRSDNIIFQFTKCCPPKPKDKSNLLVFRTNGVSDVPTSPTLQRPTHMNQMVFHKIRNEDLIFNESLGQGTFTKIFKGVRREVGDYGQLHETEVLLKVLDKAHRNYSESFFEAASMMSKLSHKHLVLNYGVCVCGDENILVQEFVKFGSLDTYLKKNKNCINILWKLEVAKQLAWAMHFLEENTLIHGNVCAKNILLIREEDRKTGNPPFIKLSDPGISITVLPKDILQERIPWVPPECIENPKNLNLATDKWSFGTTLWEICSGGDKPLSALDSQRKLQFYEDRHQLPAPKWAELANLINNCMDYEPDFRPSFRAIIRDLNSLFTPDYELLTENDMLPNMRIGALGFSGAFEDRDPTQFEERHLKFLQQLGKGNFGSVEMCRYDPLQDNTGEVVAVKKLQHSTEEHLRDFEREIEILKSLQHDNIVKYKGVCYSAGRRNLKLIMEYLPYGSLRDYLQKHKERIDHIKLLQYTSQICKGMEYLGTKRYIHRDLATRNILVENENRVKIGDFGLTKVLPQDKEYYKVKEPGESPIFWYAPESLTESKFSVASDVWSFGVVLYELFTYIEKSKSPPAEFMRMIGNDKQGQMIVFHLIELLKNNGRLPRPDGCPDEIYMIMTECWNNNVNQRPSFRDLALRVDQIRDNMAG

[16] = tested on: Mus musculus; experiment: Immunosuppressive activity in Balb/c mouse model of oxazolone-induced delayed type hypersensitivity assessed as appearance of well structured tissue architecture at 30 mg/kg, po measured after 7 days by H and E staining based histopathological analysis; format: functional, organism-based; details: time 7.0 day
[17] = molecular target: EGFR (Epidermal growth factor receptor) (Homo sapiens, UniProt P00533); experiment: Inhibition of recombinant human GST-tagged EGFR (668 to 1210 residues) expressed in baculovirus expression system at 100 nM using Tyr04 peptide as substrate incubated for 1 hr by Z'lyte assay relative to control; details: probe Tyr04 peptide
[18] = AUC (0 to t) in ICR mouse at 30 mg/kg, po administered as single dose via gavage by LC-MS/MS analysis; format: ADME, organism-based; parameters: dose 30 mg/kg; details: in vivo
[19] = molecular target: ERBB4 (Receptor tyrosine-protein kinase erbB-4) (Homo sapiens, UniProt Q15303); experiment: Inhibition of recombinant human N-terminal GST-tagged ERBB4 catalytic domain (708 to 993 residues) expressed in baculovirus expression system at 100 nM using tyrosine-1 peptide as substrate incubated for 60 mins in presence of ATP by Z'-LYTE assay relative to control; details: probe tyrosine-1 peptide
ERBB4 (Receptor tyrosine-protein kinase erbB-4), sequence (Q15303 whole entry, the tested form may be a part): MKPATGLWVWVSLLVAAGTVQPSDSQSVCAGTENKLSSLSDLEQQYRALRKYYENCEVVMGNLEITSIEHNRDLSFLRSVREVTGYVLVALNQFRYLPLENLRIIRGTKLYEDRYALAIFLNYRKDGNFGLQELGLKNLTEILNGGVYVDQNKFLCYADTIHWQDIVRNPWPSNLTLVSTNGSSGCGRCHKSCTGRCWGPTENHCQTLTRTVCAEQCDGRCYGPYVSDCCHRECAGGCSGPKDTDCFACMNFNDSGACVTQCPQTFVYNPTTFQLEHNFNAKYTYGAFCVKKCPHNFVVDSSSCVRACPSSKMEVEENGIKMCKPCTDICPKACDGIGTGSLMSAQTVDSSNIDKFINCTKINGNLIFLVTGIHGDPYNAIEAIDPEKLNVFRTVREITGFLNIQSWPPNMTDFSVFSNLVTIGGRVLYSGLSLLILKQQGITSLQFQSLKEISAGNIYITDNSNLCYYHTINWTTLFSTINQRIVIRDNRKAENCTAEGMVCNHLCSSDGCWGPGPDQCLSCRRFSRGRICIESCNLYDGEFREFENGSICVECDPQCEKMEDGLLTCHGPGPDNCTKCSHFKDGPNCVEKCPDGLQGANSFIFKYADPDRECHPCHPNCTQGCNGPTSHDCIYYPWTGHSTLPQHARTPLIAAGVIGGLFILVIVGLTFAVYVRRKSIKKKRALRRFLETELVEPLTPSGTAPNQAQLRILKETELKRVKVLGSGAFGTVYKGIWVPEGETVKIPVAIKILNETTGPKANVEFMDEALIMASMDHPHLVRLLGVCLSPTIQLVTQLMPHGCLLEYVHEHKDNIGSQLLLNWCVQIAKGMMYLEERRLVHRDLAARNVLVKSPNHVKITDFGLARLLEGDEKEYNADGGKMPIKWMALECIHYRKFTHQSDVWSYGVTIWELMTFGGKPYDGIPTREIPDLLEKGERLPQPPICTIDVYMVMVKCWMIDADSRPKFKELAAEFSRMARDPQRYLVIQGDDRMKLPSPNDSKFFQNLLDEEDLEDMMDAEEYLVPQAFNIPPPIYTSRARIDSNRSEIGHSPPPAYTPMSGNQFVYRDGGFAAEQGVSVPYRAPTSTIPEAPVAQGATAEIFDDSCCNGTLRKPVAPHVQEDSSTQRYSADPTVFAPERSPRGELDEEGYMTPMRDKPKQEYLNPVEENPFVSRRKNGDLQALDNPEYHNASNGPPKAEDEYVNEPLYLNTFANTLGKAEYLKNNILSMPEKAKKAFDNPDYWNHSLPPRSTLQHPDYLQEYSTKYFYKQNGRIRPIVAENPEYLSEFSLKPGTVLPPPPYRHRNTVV

[20] = Cytotoxicity against IL-4-treated mouse T cells assessed as reduction in cell viability at 10 uM measured after 72 hrs by MTS assay; format: cell-based
[21] = Oral bioavailability in ICR mouse at 30 mg/kg administered as single dose via gavage by LC-MS/MS analysis; format: ADME, organism-based; details: in vivo

## C=CC(=O)Nc1ccc(-c2ccnc(Nc3ccc(N4CCOCC4)cc3)n2)cc1
[1]
  Activity: Non-Toxic
[2]
  inhibition at 1 h, 0.1 µM: 19.2%
[3]
  IC50: 1.32 µM
[4]
  inhibition: Dose-dependent effect
[5]
  inhibition: Active
[6]
  Cmax: 8760 ng/mL
[7]
  half-life: 28.2 min
[8]
  MRT last: 43.8 min
[9]
  CLz/F: 136 mL/min/kg
[10]
  AUC(0-t): 1240 ng·h/mL
[11]
  half-life: 91.2 min
[12]
  Cmax: 2010 ng/mL
[13]
  Activity: Non-Toxic
[14]
  inhibition at 1 h, 0.1 µM: 6.3%
[15]
  IC50: 1 µM
[16]
  Activity: Active
[17]
  inhibition at 1 h, 0.1 µM: 1.2%
[18]
  AUC(0-t): 889 ng·h/mL
[19]
  inhibition at 1 h, 0.1 µM: 8%
[20]
  Activity: Non-Toxic
[21]
  bioavailability: 23.8%
